Where a name gives a salt, the structure may show the parent alone. Positions of bridges follow the written chain, without caps; N, C: chain ends. Non-standard residues stand in square brackets, D forms with d. Residues, ends and D or L forms follow the SMILES beside them. *: point of attachment. X1 = CC[C@H](C)CCCCC(=O)*; Dab = NCC[C@H](N)C(=O)O
Assays:
[1] = system: V5 Escherichia coli AIM-1; test: MIC assay (broth microdilution) after storage; assay type: cell-based; settings: 16–20 h, mode (n = 3), equivalent colistin concentration for conjugates; for MIC, Initial: before storage, 3 mg/mL in PBS, broth microdilution in MH broth; for MIC, storage temperature 4 °C: stored in PBS at 4 °C for 12 months; for MIC, storage temperature 4 °C / MIC, storage temperature 21 °C / MIC, storage temperature 37 °C / MIC, storage temperature -20 °C / MIC, repeat freeze–thaw: broth microdilution, MH broth; for MIC, storage temperature 21 °C: stored in PBS at 21 °C for 12 months; for MIC, storage temperature 37 °C: stored in PBS at 37 °C for 12 months; for MIC, storage temperature -20 °C: stored in PBS at -20 °C for 12 months; for MIC, repeat freeze–thaw: weekly freeze-thawing for 5 weeks (-20 °C, defrosted 1 h at 20–22 °C)
Protocol: (§1) The clinical isolates (V5 Escherichia coli AIM-1, V6 Klebsiella pneumoniae IR25 and V19 Acinetobacter baumannii 7789) and susceptibility testing method have been previously described by Khan et al.[33] Bacterial colonies were grown on blood agar supplemented with 5% v/v defibrinated horse blood. Overnight cultures were prepared in tryptone soy broth (TSB) and Mueller–Hinton broth (MHB) was used for MIC determination (LabM; Bury, UK).
(§2) Three primary batches of colistin sulfate, CMS and dextrin-colistin conjugates were dissolved in PBS at 3 mg/mL and stored at − 20, 4, 21 and 37 °C for 0, 1, 3, 6, 9 and 12 months. In addition, to test the effect of repeated freeze–thaw on stability, a separate set of solutions were stored at − 20 °C and defrosted for 1 h at 20–22 °C weekly for 5 cycles. Samples were analyzed using FPLC (free drug) and GPC (saccharide release) and antimicrobial activity, UV/vis absorbance and protein content (bicinchoninic acid (BCA) assay) of the samples stored for 12 months was assessed.
(§3) The minimum inhibitory concentration (MIC) of colistin sulphate, CMS and dextrin-colistin conjugates was determined using the broth microdilution method in MH broth in accordance with standard guidelines. Test organisms were suspended in MH broth (100 µL, 5 × 10^5 colony forming units (CFU)/mL) and incubated in 96-well microtitre plates in serial two-fold dilutions of the test compounds. The MIC was defined as the lowest concentration of test compound that produced no visible growth after 16–20 h. Results were expressed as mode (n = 3).

[2] = system: V19 Acinetobacter baumannii 7789; assay type: cell-based; settings: 16–20 h, mode (n = 3), equivalent colistin concentration for conjugates; for MIC, Initial: before storage, 3 mg/mL in PBS, broth microdilution in MH broth; for MIC, storage temperature 4 °C: stored in PBS at 4 °C for 12 months; for MIC, storage temperature 4 °C / MIC, storage temperature 21 °C / MIC, storage temperature 37 °C / MIC, storage temperature -20 °C / MIC, repeat freeze–thaw: broth microdilution, MH broth; for MIC, storage temperature 21 °C: stored in PBS at 21 °C for 12 months; for MIC, storage temperature 37 °C: stored in PBS at 37 °C for 12 months; for MIC, storage temperature -20 °C: stored in PBS at -20 °C for 12 months; for MIC, repeat freeze–thaw: weekly freeze-thawing for 5 weeks (-20 °C, defrosted 1 h at 20–22 °C)
Protocol: as §1, §2, §3

[3] = system: V6 Klebsiella pneumoniae IR25; assay type: cell-based; settings: 16–20 h, mode (n = 3), equivalent colistin concentration for conjugates; for MIC, Initial: before storage, 3 mg/mL in PBS, broth microdilution in MH broth; for MIC, storage temperature 4 °C: stored in PBS at 4 °C for 12 months; for MIC, storage temperature 4 °C / MIC, storage temperature 21 °C / MIC, storage temperature 37 °C / MIC, storage temperature -20 °C / MIC, repeat freeze–thaw: broth microdilution, MH broth; for MIC, storage temperature 21 °C: stored in PBS at 21 °C for 12 months; for MIC, storage temperature 37 °C: stored in PBS at 37 °C for 12 months; for MIC, storage temperature -20 °C: stored in PBS at -20 °C for 12 months; for MIC, repeat freeze–thaw: weekly freeze-thawing for 5 weeks (-20 °C, defrosted 1 h at 20–22 °C)
Protocol: as §1, §2, §3

[4] = Stability during storage in PBS: saccharide release and elution profile by GPC; assay type: physicochemical; settings: 3 mg/mL in PBS, up to 12 months; Ultrahydrogel 120, RI; CMS: after storage above -20 °C
Protocol: as §2
GPC was performed using an Ultrahydrogel guard column and two Ultrahydrogel 120 columns (7.8 mm × 300 mm) from Waters (Elstree, UK) in series, connected to a Jasco PU-1580 HPLC pump with PBS buffer eluent and a flow rate of 1 mL/min. Samples (300 μL) were injected into a 100 μL loop and the eluate was monitored using a Jasco MD-2010 multi-wavelength UV detector (210 and 280 nm) and a Gilson 153 differential refractometer (Middleton, WI, USA) connected to a Polymer Laboratories PL DataStream (Church Stretton, UK). Dual detection enabled distinction of dextrin and saccharide components that are not bound to colistin. Cirrus GPC software (version 3.2, 2006) from Polymer Laboratories (Church Stretton, UK) was used for data analysis. Glucose and maltose oligomers (DP 2, 3, 6 and 7) were employed for calibration. […]

[5] = system: V5 Escherichia coli AIM-1, V6 Klebsiella pneumoniae IR25 and V19 Acinetobacter baumannii 7789; test: Antimicrobial activity after storage, MIC assay, statement over all test strains; assay type: cell-based; settings: repeated freeze–thaw or storage in solution for up to 12 months at -20, 4 or 21 °C
Protocol: as §1, §2
The minimum inhibitory concentration (MIC) of colistin sulphate, CMS and dextrin-colistin conjugates was determined using the broth microdilution method in MH broth in accordance with standard guidelines. […] Results were expressed as mode (n = 3).

Compound | MIC, Initial [1] [µg/mL] | MIC, storage temperature 4 °C [1] [µg/mL] | MIC, storage temperature 21 °C [1] [µg/mL] | MIC, storage temperature 37 °C [1] [µg/mL] | MIC, storage temperature -20 °C [1] [µg/mL] | MIC, repeat freeze–thaw [1] [µg/mL] | MIC, Initial [2] [µg/mL] | MIC, storage temperature 4 °C [2] [µg/mL] | MIC, storage temperature 21 °C [2] [µg/mL] | MIC, storage temperature 37 °C [2] [µg/mL] | MIC, storage temperature -20 °C [2] [µg/mL] | MIC, repeat freeze–thaw [2] [µg/mL] | MIC, Initial [3] [µg/mL] | MIC, storage temperature 4 °C [3] [µg/mL] | MIC, storage temperature 21 °C [3] [µg/mL] | MIC, storage temperature 37 °C [3] [µg/mL] | MIC, storage temperature -20 °C [3] [µg/mL] | MIC, repeat freeze–thaw [3] [µg/mL] | change of GPC elution profile after storage [4] | change of antimicrobial activity (MIC) after storage [5]
CC[C@H](C)CCCCC(=O)N[C@@H](CCN)C(=O)N[C@H](C(=O)N[C@@H](CCN)C(=O)N[C@H]1CCNC(=O)[C@H]([C@@H](C)O)NC(=O)[C@H](CCN)NC(=O)[C@H](CCN)NC(=O)[C@H](CC(C)C)NC(=O)[C@@H](CC(C)C)NC(=O)[C@H](CCN)NC1=O)[C@@H](C)O [Colistin sulfate, colistin sulfate] (X1-[Dab]T[Dab][Dab][Dab][dL]L[Dab][Dab]T; lactam 4-C (inferred); N-terminus assumed) | 0.004 | 0.002 | 0.016 | 0.25 | 0.002 | 0.004 | 0.063 | 0.031 | 0.125 | 32 | 0.063 | 0.063 | 0.125 | 0.125 | 0.5 | > 128 | 0.063 | 0.25 | largely unchanged | unaffected
Colistimethate sodium [CMS] | 0.125 | 0.063 | 0.063 | 8 | 0.031 | 0.031 | 0.5 | 0.125 | 0.25 | 64 | 0.25 | 0.125 | 2 | 1 | 1 | 128 | 1 | 0.5 | Significant changes in the elution profile | unaffected

Source: PMC8134461, “A physicochemical assessment of the thermal stability of dextrin–colistin conjugates” (Scientific Reports, 2021)
